From patent EP0972448A2, “Parasitic mite control on beneficial insects” (American Cyanamid Company, priority 1998, dated 2000)

What was measured:
Assay type in all cases: in vivo
[1] = test system: honeybees (Apis mellifera); experiment: Mortality of topically treated honeybees in the Varroa jacobsoni evaluation; details: 1 µl acetone droplet on dorsal abdomen, 5 days at 31°C
Experimental: (§1) In this evaluation, honeybees (Apis mellifera) taken from hives which are 70-90% infested with Varroa jacobsoni (Varroa mites) are chilled to immobilize the bees. A 1 µl droplet of an acetone solution of tebufenpyrad is applied to the dorsal abdomen of each bee. Control bees receive 1 µl droplet of acetone. A total of 50-52 bees are treated for each dose rate tested. Treatment dose rates are based upon the LD50 (dose rate required to obtain 50% mortality of healthy uninfected bees) of tebufenypyrad and are set at 10% of the LD50 and subsequent 10-fold dilution thereof. The treated bees are placed in an incubator at 31°C in the dark and fed 50% sugar water ad libitum for 5 days. After incubation, the bees are examined for mortality and mite infestation. The results are shown in Table I below, as % mortality of the total of the bees and the total of the mites.

[2] = test system: Acarapis woodi (trachea mites); experiment: Efficacy against Acarapis woodi parasites, contact with treated glass slides; details: slides dipped in 500 ppm acetone solution
Experimental: In this evaluation, honeybees (Apis mellifera) which are infested with Acarapis woodi (trachea mites) are dissected to remove the infested tracheae. Glass microscope slides are dipped into acetone solutions of tebufenpyrad (500 ppm)and the acetone is allowed to evaporate. Infested tracheae are placed directly on the treated slides. The mites are removed from the tracheae by dissection and forced to walk across the treated area. The elapsed time is recorded for 100% mortality, i.e. no movement is observed upon agitation.

Varroa jacobsoni = experiment: Field evaluation against Varroa jacobsoni in infested beehives, stickyboard mite count; details: two strips with 18% tebufenpyrad in 60:40 beeswax:lard, count taken 24 hours after treatment
Description: In this evaluation, two Varroa jacobsoni infested beehives are monitored for the extent of infestation using stickyboards inserted at the bottom of the hive. Data are presented as the number of mites trapped on the stickyboard per day. Two strips (2.5 x 17cm) containing 18% tebufenpyrad dissolved in a 60:40 beeswax:lard (Crisco®) mixture are inserted into each hive brood chamber as per standard practice. One day after treatment, the stickyboards are removed and the dead mites counted.

[3] = test system: Varroa jacobsoni (Varroa mites); experiment: Efficacy against Varroa jacobsoni parasites on topically treated infested honeybees; details: 1 µl acetone droplet on dorsal abdomen of bee, 5 days at 31°C
Experimental: as §1

SMILES: CCc1nn(C)c(C(=O)NCc2ccc(C(C)(C)C)cc2)c1Cl [Tebufenpyrad, N-(4-t-butylbenzyl)-4-chloro-3-ethyl-1-methylpyrazole-5-carboxamide]
- % Mortality Bees ([1]; dose 0.006 µg/bee): 24%
- % Mortality Bees ([1]; dose 0.06 µg/bee): 25%
- % Mortality Bees ([1]; dose 0.6 µg/bee): 28%
- Time required in minutes to achieve 100% mortality ([2]; Rep. 1, 7 mites): 8.5 min
- Time required in minutes to achieve 100% mortality ([2]; Rep. 2, 10 mites): 8 min
- Time required in minutes to achieve 100% mortality ([2]; Rep. 3, 7 mites): 8 min
- Treatment mites/day (Varroa jacobsoni; Hive 1, pretreatment 101 mites/day): 1777 mites/day
- Treatment mites/day (Varroa jacobsoni; Hive 2, pretreatment 66 mites/day): 1080 mites/day
- % Mortality Parasites ([3]; dose 0.006 µg/bee): 58%
- % Mortality Parasites ([3]; dose 0.06 µg/bee): 44%
- % Mortality Parasites ([3]; dose 0.6 µg/bee): 92%
